≈ marks a conversion by molar mass, not a printed value. Where only a bound is given, the exact number is not on record here.

A short description of data set [1]: Inhibition of ICAM1 expression in HeLa cells at 10 uM. The format is functional. The settings on record: Homo sapiens.
The nature of data set [2]: Inhibition of NF-kappaB luciferase reporter gene in HeLa cells at 10 uM. The settings on record: Homo sapiens. The format is functional.
A further data set has as its target Cytochrome P450 3A4 (Homo sapiens, UniProt P08684). Briefly: Inhibition of CYP3A4. In kind it is ADME.
The test system of data set [3] is HeLa. Briefly: Viability of HeLa cells at 50 uM by alomar blue assay. The format is functional, Homo sapiens.
In data set [4] the test system is HeLa. Briefly: Viability of HeLa cells at 10 uM by alomar blue assay. The format is functional, Homo sapiens.
The target of data set [5] is Tyrosine-protein kinase BTK (Homo sapiens, UniProt Q06187). As to the kind of experiment: Inhibition of BTK.
Data set [6] concerns the target cAMP-dependent protein kinase (PKA) (Homo sapiens, UniProt P22694+P17612+P22612). Briefly: Inhibition of PKA. The format is protein assay.
The target of data set [7] is T1, Inhibitor of nuclear factor kappa-B kinase subunit beta (Homo sapiens, UniProt O14920).
T1 sequence (O14920 whole entry): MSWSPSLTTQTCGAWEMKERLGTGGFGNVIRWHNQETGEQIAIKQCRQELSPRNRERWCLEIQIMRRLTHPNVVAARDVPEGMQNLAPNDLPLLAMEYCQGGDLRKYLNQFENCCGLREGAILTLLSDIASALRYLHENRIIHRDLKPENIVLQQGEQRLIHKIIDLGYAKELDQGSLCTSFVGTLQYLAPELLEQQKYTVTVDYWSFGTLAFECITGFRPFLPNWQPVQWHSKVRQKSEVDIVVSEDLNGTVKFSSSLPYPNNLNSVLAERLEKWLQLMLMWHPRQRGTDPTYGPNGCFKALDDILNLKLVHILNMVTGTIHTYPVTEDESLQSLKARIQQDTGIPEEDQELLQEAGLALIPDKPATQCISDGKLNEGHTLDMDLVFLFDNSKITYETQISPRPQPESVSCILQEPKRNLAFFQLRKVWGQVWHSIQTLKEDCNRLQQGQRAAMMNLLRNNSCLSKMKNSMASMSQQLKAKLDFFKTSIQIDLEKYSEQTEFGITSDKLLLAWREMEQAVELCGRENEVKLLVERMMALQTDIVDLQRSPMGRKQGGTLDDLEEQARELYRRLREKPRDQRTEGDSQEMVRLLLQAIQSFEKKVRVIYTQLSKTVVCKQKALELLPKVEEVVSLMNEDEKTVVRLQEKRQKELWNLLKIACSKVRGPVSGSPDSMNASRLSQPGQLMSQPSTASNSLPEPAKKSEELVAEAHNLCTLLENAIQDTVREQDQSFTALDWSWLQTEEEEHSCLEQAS

For data set [8], the target named is T2, Inhibitor of nuclear factor kappa-B kinase subunit alpha (Homo sapiens, UniProt O15111).
T2 sequence (O15111 whole entry): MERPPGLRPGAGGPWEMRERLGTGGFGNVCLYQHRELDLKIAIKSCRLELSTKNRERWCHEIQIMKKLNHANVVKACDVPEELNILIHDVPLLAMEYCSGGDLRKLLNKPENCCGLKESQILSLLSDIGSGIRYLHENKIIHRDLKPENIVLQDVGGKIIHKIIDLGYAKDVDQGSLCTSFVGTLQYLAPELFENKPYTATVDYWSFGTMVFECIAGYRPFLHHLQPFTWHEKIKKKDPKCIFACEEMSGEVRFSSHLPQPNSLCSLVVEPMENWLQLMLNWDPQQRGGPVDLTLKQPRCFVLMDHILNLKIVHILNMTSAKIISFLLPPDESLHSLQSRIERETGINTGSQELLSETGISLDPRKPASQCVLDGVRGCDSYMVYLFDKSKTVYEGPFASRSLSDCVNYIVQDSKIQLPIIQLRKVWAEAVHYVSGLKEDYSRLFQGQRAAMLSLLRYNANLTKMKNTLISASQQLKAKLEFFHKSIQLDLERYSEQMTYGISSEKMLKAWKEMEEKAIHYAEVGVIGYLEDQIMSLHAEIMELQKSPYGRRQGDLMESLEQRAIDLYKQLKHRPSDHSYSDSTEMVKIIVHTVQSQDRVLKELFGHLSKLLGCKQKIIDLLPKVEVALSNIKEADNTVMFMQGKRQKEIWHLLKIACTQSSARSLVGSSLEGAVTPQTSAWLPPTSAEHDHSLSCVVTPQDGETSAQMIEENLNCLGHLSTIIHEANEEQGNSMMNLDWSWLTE
As to the kind of experiment: Inhibition of IKK alpha.

Data set [9] can be described thus: Solubility at pH 7.4. The format is physicochemical. The settings on record: buffer.
Data set [10] in a line: Permeability from apical to basolateral side of Caco-2 cell membrane. The format is ADME, cell-based. The settings on record: human, read-out: permeability.
Data set [11] in a line: Half life in human liver microsome. Conditions: liver microsomes. The format is ADME.
The target of a further data set is T3, Cytochrome P450 1A2 (Homo sapiens, UniProt P05177).
T3 sequence (P05177 whole entry): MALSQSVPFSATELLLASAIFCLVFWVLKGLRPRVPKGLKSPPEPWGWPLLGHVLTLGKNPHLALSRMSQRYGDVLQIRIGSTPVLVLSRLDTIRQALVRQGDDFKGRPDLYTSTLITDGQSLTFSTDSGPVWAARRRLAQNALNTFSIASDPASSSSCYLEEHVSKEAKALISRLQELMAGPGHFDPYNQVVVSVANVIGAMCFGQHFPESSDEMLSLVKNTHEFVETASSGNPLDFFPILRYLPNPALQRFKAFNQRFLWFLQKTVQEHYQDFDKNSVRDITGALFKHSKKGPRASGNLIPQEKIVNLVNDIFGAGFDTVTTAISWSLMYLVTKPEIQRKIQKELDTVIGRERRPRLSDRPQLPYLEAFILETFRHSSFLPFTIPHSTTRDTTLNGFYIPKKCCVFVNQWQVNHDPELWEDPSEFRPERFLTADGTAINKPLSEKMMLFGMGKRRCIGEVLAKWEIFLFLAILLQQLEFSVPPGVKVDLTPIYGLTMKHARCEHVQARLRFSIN
As to the kind of experiment: Inhibition of CYP1A2. In kind it is ADME.

For another data set, the target named is Cytochrome P450 2C9 (Homo sapiens, UniProt P11712). As to the kind of experiment: Inhibition of CYP2C9. The format is ADME.
The target in a further data set is Cytochrome P450 2C19 (Homo sapiens, UniProt P33261). Briefly: Inhibition of CYP2C19. The format is ADME.
A further data set addresses Cytochrome P450 2D6 (Homo sapiens, UniProt P10635). Briefly: Inhibition of CYP2D6. In kind it is ADME.

Sequence of Cytochrome P450 2D6 (P10635 whole entry): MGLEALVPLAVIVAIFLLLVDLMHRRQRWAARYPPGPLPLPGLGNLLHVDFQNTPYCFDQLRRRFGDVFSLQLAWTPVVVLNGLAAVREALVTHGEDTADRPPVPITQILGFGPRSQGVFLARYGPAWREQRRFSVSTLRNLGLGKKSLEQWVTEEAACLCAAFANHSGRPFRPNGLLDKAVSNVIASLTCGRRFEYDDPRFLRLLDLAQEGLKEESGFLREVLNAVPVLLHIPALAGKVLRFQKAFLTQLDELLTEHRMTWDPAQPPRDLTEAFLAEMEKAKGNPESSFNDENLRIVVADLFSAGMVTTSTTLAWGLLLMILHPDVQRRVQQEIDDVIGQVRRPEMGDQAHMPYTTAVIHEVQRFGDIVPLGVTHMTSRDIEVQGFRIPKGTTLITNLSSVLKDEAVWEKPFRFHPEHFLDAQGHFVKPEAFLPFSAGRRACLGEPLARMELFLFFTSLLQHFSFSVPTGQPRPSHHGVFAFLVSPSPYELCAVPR
Sequence of Cytochrome P450 3A4 (P08684 whole entry): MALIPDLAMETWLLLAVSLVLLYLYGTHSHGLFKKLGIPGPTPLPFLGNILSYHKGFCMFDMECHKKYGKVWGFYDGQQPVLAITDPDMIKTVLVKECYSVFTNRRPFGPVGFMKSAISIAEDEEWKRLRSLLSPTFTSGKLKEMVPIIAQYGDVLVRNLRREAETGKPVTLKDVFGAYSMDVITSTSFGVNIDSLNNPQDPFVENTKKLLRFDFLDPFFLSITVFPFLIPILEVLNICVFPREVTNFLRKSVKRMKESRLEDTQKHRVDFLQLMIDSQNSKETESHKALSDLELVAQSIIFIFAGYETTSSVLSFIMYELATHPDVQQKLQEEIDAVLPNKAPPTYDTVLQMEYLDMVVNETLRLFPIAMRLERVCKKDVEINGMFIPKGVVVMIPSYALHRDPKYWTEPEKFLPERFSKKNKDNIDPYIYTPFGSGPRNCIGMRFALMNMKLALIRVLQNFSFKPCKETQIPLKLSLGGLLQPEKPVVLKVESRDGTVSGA
Sequence of Cytochrome P450 2C9 (P11712 whole entry): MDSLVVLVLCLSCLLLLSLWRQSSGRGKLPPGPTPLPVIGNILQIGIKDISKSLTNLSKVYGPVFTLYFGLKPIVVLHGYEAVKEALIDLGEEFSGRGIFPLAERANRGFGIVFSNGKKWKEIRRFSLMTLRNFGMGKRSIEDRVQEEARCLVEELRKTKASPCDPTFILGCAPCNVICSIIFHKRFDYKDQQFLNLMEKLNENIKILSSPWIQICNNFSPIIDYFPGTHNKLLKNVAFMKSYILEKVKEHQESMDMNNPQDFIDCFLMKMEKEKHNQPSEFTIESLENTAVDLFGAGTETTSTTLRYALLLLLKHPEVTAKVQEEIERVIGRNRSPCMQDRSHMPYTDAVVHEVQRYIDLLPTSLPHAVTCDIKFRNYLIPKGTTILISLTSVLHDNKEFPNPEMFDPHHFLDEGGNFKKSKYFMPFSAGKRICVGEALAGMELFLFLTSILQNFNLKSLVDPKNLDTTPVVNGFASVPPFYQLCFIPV
Sequence of Cytochrome P450 2C19 (P33261 whole entry): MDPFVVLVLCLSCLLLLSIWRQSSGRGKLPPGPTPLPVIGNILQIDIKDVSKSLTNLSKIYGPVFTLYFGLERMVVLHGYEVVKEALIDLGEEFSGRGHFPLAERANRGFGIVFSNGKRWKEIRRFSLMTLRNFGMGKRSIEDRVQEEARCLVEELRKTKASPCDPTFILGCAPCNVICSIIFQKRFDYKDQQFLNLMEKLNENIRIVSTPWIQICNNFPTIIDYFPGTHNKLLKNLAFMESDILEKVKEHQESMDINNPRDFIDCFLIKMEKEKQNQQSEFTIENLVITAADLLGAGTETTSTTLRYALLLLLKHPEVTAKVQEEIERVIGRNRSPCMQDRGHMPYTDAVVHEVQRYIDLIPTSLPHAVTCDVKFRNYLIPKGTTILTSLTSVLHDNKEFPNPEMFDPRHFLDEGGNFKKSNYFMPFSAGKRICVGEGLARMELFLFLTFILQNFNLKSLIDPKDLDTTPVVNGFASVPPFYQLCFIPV
Sequence of Tyrosine-protein kinase BTK (Q06187 whole entry): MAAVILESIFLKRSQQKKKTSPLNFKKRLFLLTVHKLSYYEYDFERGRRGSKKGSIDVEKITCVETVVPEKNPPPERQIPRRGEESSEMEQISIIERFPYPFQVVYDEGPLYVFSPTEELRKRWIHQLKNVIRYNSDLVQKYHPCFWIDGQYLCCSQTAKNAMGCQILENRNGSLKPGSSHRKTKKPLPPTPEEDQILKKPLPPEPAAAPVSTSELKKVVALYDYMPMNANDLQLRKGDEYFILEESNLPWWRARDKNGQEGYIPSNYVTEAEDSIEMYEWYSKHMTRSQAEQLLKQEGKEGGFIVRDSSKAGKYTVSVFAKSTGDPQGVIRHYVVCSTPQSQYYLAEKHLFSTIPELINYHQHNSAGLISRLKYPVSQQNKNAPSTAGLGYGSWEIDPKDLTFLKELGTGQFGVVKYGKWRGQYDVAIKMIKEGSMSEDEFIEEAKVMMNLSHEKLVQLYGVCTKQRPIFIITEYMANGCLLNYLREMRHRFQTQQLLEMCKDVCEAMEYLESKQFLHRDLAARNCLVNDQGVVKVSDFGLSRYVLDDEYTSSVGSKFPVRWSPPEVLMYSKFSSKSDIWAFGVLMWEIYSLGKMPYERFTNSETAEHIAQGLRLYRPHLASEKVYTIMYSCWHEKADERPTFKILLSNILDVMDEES

Turning to `Cc1cc(C)c2c(N)c(C(N)=O)sc2n1`, the inhibition at 10 µM was 42% in data set [1] and 45% in [2]. Besides, the IC50 was more than 30 µM on Cytochrome P450 3A4; 4.1 µM in data set [5]; 27 µM in data set [6]; 2.2 µM in data set [7]; 2.8 µM in [8]; more than 30 µM on Cytochrome P450 1A2. The IC50 against Cytochrome P450 2C9, on Cytochrome P450 2C19 and against Cytochrome P450 2D6 was more than 30 µM in each case. Further, the Activity with HeLa [3] was found to be 68%; in the data set with HeLa [4], 100%. This compound also displayed a solubility in data set [9] of 24 µg/mL (≈ 108 µM). In data set [10], the Papp A→B came out at 13.6 ×10⁻⁶ cm/s. The half-life in [11] was determined as 1.3 h.

(Values after ChEMBL document CHEMBL1147674, “Evolution of the thienopyridine class of inhibitors of IkappaB kinase-beta: part I: hit-to-lead strategies” (J Med Chem, 2006).)
